According to patent US11584747B2, “Substituted pyridopyrimidinonyl compounds useful as T cell activators” (BRISTOL-MYERS SQUIBB COMPANY, priority 2019, dated 2023):
Like-named read-outs stand apart in the source and are kept apart here.

Experiments:
[1] = tested on: whole blood (pERK); assay: pERK Whole Blood assay (Table A; no whole-blood pERK method described); type: cell-based; conditions: normalized
[2] = tested on: human venous whole blood (IFN-γ); assay: Human whole blood IFN-γ assay; type: cell-based; conditions: whole blood, normalized to 3 μM reference compound as 100% activation, read-out: IFN-γ Whole Blood Normalized EC50
Experimental: Human venous whole blood (22.5 μL per well), obtained from healthy donors, was pre-treated with compounds for one hour at 37° C. in a humidified 95% air/5% CO2 incubator. The blood was stimulated with 2.5 μL anti-human CD3 and anti-CD28 mAb at a final concentration of 1 μg/mL each for 24 hours at 37° C. IFN-γ in the supernatants was measured using AlphLISA kit (Cat #AL217).

[3] = target: human DGKζ (Homo sapiens (Human), UniProt Q13574); assay: DGKζ LIPGLO assay (extruded liposome substrate, ADP-Glo luminescence); type: biochemical; conditions: liposome assay; read-out: DGK zeta LIPGLO IC50
human DGKζ, sequence (Q13574 other isoform, or with tags, fused parts or gaps): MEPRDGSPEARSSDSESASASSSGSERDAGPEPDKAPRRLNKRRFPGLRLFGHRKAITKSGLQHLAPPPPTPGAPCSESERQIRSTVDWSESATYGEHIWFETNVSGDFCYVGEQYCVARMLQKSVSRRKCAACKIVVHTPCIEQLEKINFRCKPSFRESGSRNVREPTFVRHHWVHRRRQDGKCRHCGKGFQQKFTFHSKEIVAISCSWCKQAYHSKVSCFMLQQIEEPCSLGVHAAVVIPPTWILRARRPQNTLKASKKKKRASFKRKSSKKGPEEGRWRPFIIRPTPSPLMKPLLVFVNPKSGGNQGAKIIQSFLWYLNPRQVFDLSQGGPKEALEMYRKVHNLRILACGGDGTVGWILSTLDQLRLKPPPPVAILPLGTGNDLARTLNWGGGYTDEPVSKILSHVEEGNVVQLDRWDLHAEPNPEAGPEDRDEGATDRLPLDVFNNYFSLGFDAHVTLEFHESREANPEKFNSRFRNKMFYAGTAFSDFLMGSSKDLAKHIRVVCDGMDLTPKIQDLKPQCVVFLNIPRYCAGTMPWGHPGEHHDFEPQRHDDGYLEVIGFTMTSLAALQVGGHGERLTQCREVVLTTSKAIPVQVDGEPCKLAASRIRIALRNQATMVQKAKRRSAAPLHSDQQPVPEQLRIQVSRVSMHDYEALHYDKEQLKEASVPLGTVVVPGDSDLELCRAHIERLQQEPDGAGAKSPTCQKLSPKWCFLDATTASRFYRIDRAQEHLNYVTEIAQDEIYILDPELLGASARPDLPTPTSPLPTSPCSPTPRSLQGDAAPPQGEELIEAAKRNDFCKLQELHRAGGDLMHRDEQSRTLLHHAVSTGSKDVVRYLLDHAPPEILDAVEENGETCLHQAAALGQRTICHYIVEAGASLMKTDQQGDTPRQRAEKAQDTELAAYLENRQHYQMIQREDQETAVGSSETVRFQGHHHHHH

[4] = target: T1, human DGKα (Homo sapiens (Human), UniProt P23743); assay: DGKα ADPGLO assay (detergent/lipid micelle substrate); type: biochemical; conditions: truncated DGK alpha; read-out: DGK alpha ADPGLO (Truncated) IC50
T1 sequence (P23743 whole entry, looked up, the tested form may be a part): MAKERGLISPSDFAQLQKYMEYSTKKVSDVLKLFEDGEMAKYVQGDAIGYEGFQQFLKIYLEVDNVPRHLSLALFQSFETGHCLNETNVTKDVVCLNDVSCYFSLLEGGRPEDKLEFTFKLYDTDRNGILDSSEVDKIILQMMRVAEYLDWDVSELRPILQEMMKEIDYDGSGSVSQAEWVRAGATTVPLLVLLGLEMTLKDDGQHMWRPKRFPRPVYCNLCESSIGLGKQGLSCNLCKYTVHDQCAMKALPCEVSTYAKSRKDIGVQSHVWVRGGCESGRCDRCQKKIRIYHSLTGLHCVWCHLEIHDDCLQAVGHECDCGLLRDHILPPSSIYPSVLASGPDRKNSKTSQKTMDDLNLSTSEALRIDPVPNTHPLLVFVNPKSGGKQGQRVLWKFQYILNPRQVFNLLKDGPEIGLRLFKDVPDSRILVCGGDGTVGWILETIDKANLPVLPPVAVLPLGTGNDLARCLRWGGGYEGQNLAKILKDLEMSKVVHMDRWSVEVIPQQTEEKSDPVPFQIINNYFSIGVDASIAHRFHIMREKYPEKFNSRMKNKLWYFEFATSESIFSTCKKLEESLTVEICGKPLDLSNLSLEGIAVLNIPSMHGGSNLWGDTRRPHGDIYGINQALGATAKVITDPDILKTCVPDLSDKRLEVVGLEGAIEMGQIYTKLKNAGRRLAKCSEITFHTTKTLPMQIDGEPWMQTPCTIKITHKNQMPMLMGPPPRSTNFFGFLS
Experimental: DGK Alpha ADPGLO (Truncated) IC50 (uM)
The detergent/lipid micelle was prepared by combining 15 g phosphatidylserine (Avanti 840035P) and 1 g diacylglycerol (8008110) and dissolving into 150 mL chloroform in a 2 L round bottom flask. Chloroform was removed under high vacuum by rotary evaporation. […] The lipid/detergent solution was split into 5 mL aliquots and stored at −80° C.

[5] = target: T1, human DGKα; assay: DGKα LIPGLO assay (extruded liposome substrate, ADP-Glo luminescence); type: biochemical; conditions: liposome assay; read-out: DGK alpha LIPGLO IC50

IC50 [3] [nM]	IC50 [4] [nM]	IC50 [5] [nM]	Structure (SMILES)	IC50 [1] [nM]	EC50 [2] [nM]	EC50 ([2]; Homo sapiens) [nM]
			CC[C@H]1CN(C(c2ccc(F)cc2)c2nc(C3CC3)no2)[C@H](CC)CN1c1nc(=O)n(C)c2ccc(C#N)nc12 (single isomer, unassigned) [Example 110]	15	9	
43	9		CCC(c1ccc(C2CC2)cc1F)N1C[C@H](C)N(c2nc(=O)n(C)c3ccc(C#N)nc23)C[C@H]1CC (stereo partly drawn) [Example 302, 4-((2S,5R)-4-(1-(4-cyclopropyl-2-fluorophenyl)propyl)-5-ethyl-2-methylpiperazin-1-yl)-1-methyl-2-oxo-1,2-dihydropyrido[3,2-d]pyrimidine-6-carbonitrile]	34		
57200	1950		CC[C@H]1CN(C(C)c2ccc(CN3CCC[C@@H](O)C3)cc2)[C@H](CC)CN1c1nc(=O)n(C)c2ccc(C#N)nc12 (stereo partly drawn) [Example 290, 4-((2S,5R)-2,5-diethyl-4-(1-(4-(((R)-3-hydroxypiperidin-1-yl)methyl)phenyl)ethyl)piperazin-1-yl)-1-methyl-2-oxo-1,2-dihydropyrido[3,2-d]pyrimidine-6-carbonitrile]	20000		
			CC[C@@H]1CN(c2nc(=O)n(C)c3ccc(C#N)nc23)[C@@H](C)CN1C(c1ccc(Cl)cc1)c1ccccn1 (single isomer, unassigned) [Example 95]	10500	370	
	58		CCC(c1ccc(C(F)(F)F)cc1)N1C[C@H](CC)N(c2nc(=O)n(C)c3ccc(C#N)nc23)C[C@H]1CC (single isomer, unassigned) [Example 6]	6980		
			CC[C@H]1CN(C(c2ccc(F)cc2)c2nc(C3CC3)no2)[C@H](CC)CN1c1nc(=O)n(C)c2ccc(C#N)nc12 (single isomer, unassigned) [Example 111]	90	21	
			CC[C@@H]1CN(c2nc(=O)n(C)c3ccc(C#N)nc23)[C@@H](C)CN1C(c1ccc(F)cc1)c1ccc(C(F)(F)F)cn1 (single isomer, unassigned) [Example 47]	20		32
2940	1510		CCC(c1ccc(OC2CC2)cc1)N1C[C@H](CC)N(c2nc(=O)n(C)c3ccc(C#N)nc23)C[C@H]1CC (stereo partly drawn) [Example 256, 4-((2S,5R)-4-(1-(4-cyclopropoxyphenyl)propyl)-2,5-diethylpiperazin-1-yl)-1-methyl-2-oxo-1,2-dihydropyrido[3,2-d]pyrimidine-6-carbonitrile]	290		
1150	330		CC[C@H]1CN(C(c2ccc(OC)cc2)C(C)C)[C@H](CC)CN1c1nc(=O)n(C)c2ccc(C#N)nc12 (stereo partly drawn) [Example 250, 4-((2S,5R)-2,5-diethyl-4-(1-(4-methoxyphenyl)-2-methylpropyl)piperazin-1-yl)-1-methyl-2-oxo-1,2-dihydropyrido[3,2-d]pyrimidine-6-carbonitrile]	1800		
			CC[C@H]1CN(C(c2ccc(OC(C)C)cc2)C(C)C)[C@H](CC)CN1c1nc(=O)n(C)c2ccc(C#N)nc12 (stereo partly drawn) [Example 262, 4-((2S,5R)-2,5-diethyl-4-(1-(4-isopropoxyphenyl)-2-methylpropyl)piperazin-1-yl)-1-methyl-2-oxo-1,2-dihydropyrido[3,2-d]pyrimidine-6-carbonitrile]	4150		
	140		CC[C@@H]1CN(c2nc(=O)n(C)c3ccc(C#N)nc23)[C@@H](C)CN1C(C)c1ccc(C(F)(F)F)cc1 (single isomer, unassigned) [Example 8]	180		
			C[C@@H]1CN(c2nc(=O)n(C)c3ccc(C#N)nc23)[C@@H](C)CN1C(c1ccc(F)cc1)c1ccc(C(F)(F)F)cn1 (single isomer, unassigned) [Example 127]	240		410
59	36		CCC(c1ccc(OC(C)C)cc1)N1C[C@H](CC)N(c2nc(=O)n(C)c3ccc(C#N)nc23)C[C@H]1CC (stereo partly drawn) [Example 234, 4-((2S,5R)-2,5-diethyl-4-(1-(4-isopropoxyphenyl)propyl)piperazin-1-yl)-1-methyl-2-oxo-1,2-dihydropyrido[3,2-d] pyrimidine-6-carbonitrile]	80		
470	120	69	CCC(c1ccc(OC(F)(F)F)cc1)N1C[C@H](CC)N(c2nc(=O)n(C)c3ccc(C#N)nc23)C[C@H]1CC (single isomer, unassigned) [Example 37]		20000	
18	34		CCC(c1ccc(C(C)(C)C#N)cc1)N1C[C@H](CC)N(c2nc(=O)n(C)c3ccc(C#N)nc23)C[C@H]1CC (stereo partly drawn) [Example 251, 4-((2S,5R)-4-(1-(4-(2-cyanopropan-2-yl)phenyl)propyl)-2,5-diethylpiperazin-1-yl)-1-methyl-2-oxo-1,2-dihydropyrido[3,2-d]pyrimidine-6-carbonitrile]	1580		
120	58		CCC(c1ccc(OC2CC2)cc1)N1C[C@H](CC)N(c2nc(=O)n(C)c3ccc(C#N)nc23)C[C@H]1CC (stereo partly drawn) [Example 255, 4-((2S,5R)-4-(1-(4-cyclopropoxyphenyl)propyl)-2,5-diethylpiperazin-1-yl)-1-methyl-2-oxo-1,2-dihydropyrido[3,2-d]pyrimidine-6-carbonitrile]	540		
125000	42700		CC[C@H]1CN(C(C)c2ccc(CN3CC4(COC4)C3)cc2)[C@H](CC)CN1c1nc(=O)n(C)c2ccc(C#N)nc12 (stereo partly drawn) [Example 280, 4-((2S,5R)-4-(1-(4-((2-oxa-6-azaspiro[3.3]heptan-6-yl)methyl)phenyl)ethyl)-2,5-diethylpiperazin-1-yl)-1-methyl-2-oxo-1,2-dihydropyrido[3,2-d]pyrimidine-6-carbonitrile]	150		
5850	4670		CC[C@H]1CN(C(C)c2cccc(OC(F)(F)F)n2)[C@H](CC)CN1c1nc(=O)n(C)c2ccc(C#N)nc12 (stereo partly drawn) [Example 246, 4-((2S,5R)-2,5-diethyl-4-(1-(6-(trifluoromethoxy)pyridin-2-yl)ethyl)piperazin-1-yl)-1-methyl-2-oxo-1,2-dihydropyrido[3,2-d]pyrimidine-6-carbonitrile]	440		
40			CC[C@H]1CN(C(c2ccc(OC)cc2)C(C)C)[C@H](CC)CN1c1nc(=O)n(C)c2ccc(C#N)nc12 (stereo partly drawn) [Example 249, 4-((2S,5R)-2,5-diethyl-4-(1-(4-methoxyphenyl)-2-methylpropyl)piperazin-1-yl)-1-methyl-2-oxo-1,2-dihydropyrido[3,2-d]pyrimidine-6-carbonitrile]	420		
62400	17000		CC[C@H]1CN(C(C)c2ccc(CN3CC4(COC4)C3)cc2)[C@H](CC)CN1c1nc(=O)n(C)c2ccc(C#N)nc12 (stereo partly drawn) [Example 279, 4-((2S,5R)-4-(1-(4-((2-oxa-6-azaspiro[3.3]heptan-6-yl)methyl)phenyl)ethyl)-2,5-diethylpiperazin-1-yl)-1-methyl-2-oxo-1,2-dihydropyrido[3,2-d]pyrimidine-6-carbonitrile]	2920		
17	170		CC[C@H]1CN(C(c2ccc(OC(C)C)cc2)C(C)C)[C@H](CC)CN1c1nc(=O)n(C)c2ccc(C#N)nc12 (stereo partly drawn) [Example 261, 4-((2S,5R)-2,5-diethyl-4-(1-(4-isopropoxyphenyl)-2-methylpropyl)piperazin-1-yl)-1-methyl-2-oxo-1,2-dihydropyrido[3,2-d]pyrimidine-6-carbonitrile]	680		
1010	210		CC[C@H]1CN(C(C)c2ccc(CN3C[C@@H](C)O[C@@H](C)C3)cc2)[C@H](CC)CN1c1nc(=O)n(C)c2ccc(C#N)nc12 (stereo partly drawn) [Example 292, 4-((2S,5R)-4-(1-(4-(((2S,6R)-2,6-dimethylmorpholino)methyl)phenyl)ethyl)-2,5-diethylpiperazin-1-yl)-1-methyl-2-oxo-1,2-dihydropyrido[3,2-d]pyrimidine-6-carbonitrile]	1100		
1340	330	1230	CC[C@H]1CN(C(C)c2ccc(C(F)(F)F)cc2F)[C@H](CC)CN1c1nc(=O)n(C)c2ccc(C#N)nc12 (single isomer, unassigned) [Example 25]		1250	
			CC[C@@H]1CN(c2nc(=O)n(C)c3ccc(C#N)nc23)[C@@H](C)CN1C(c1ccc(F)cc1)c1ccc(C(F)(F)F)cn1 (stereo partly drawn) [Example 46, 4-((2S,5R)-5-Ethyl-4((4-fluorophenyl)(5-(trifluoromethyl)pyridin-2-yl)methyl)-2-methylpiperazin-1-yl)-1-methyl-2-oxo-1,2-dihydropyrido[3,2-d]pyrimidine-6-carbonitrile]	43		73
5250			CC[C@H]1CN(C(C)c2ccc(C(F)(F)F)cc2N2CCOCC2)[C@H](CC)CN1c1nc(=O)n(C)c2ccc(C#N)nc12 (stereo partly drawn) [Example 194, 4-((2S,5R)-2,5-diethyl-4-(1-(2-morpholino-4-(trifluoromethyl)phenyl)ethyl)piperazin-1-yl)-1-methyl-2-oxo-1,2-dihydropyrido[3,2-d]pyrimidine-6-carbonitrile]	270		
